Measured values: patent US9717751B2, “Chitin or derivatives thereof for the prevention and/or treatment of parasitoses” (LESAFFRE ET COMPAGNIE, priority 2012, dated 2017)
Values joined by “and” are separate entries in the source; they are usually repeats but may differ in a detail not shown here. Equal values may be shown once. Where a name gives a salt, the structure may show the parent alone.

Assays:
[1] = tested on: C. parvum; experiment: Preincubation test: C. parvum oocysts preincubated 24 h with compound, then infection of HCT-8 cells; type: cell-based, Cryptosporidium parvum; conditions: preincubation 24 h, 500 μg/ml; for viability at 500 µg/mL: Cryptosporidium parvum, T+ = 100, read-out: % of viable sporozoites; for Number of sporozoites: single tests; for Number of sporozoites, Mean: triplicate mean
Procedure: (§1) Two cell models were tested: HCT-8 cells (human ileocecal adenocarcinoma cells) and Caco-2 cells (human colonic adenocarcinoma cells). The Iowa Cryptosporidium parvum strain (Waterborne inc., New Orleans, La., USA) is used for the tests. The infection is carried out on cells at 70%-80% confluence, cultured in a monolayer on collagen-coated coverslips in 24-well plates. The supernatant of the cells in a monolayer is replaced with 3 ml of culture medium to which 1×10^4 C. parvum oocysts are added. After incubation for 3 hours in a humid incubator at 37° C. and 5% CO2, the supernatant is replaced with 3 ml of culture medium and incubated for 48 h in a humid incubator at 37° C., 5% CO2 and 80% humidity. In each well of a plate, 1×10^4 oocysts are brought into contact with 500 μg/ml of paromomycin, chitosan or NAG. The plates are incubated for 24 h in a humid incubator at 37° C. and 5% CO2. The cells are then infected as indicated above. The intracellular oocysts are stained after fixing the cells with methanol. The labeling is carried out using a specific conjugated polyclonal antibody (Sporo-Glo 20×Waterborne inc., New Orleans, La., USA). The coverslips are then mounted on slides. The intracellular oocysts are counted with a fluorescence microscope. On each slide, 6×50 fields randomly chosen over the entire surface area of the slide are counted. The results obtained are a triplicate mean. The data are analyzed by ANOVA. A p-value of less than or equal to 0.05 is considered to be significant. The tested compounds are incubated for 24 h with C. parvum oocysts before the in vitro infection at a dose of 500 μg/ml.

[2] = tested on: C. parvum; experiment: Effect of the compounds on C. parvum development in CMT-93 murine cells; type: cell-based, Cryptosporidium parvum; conditions: CMT-93 cells, 18 μg/ml
Procedure: The C. parvum oocysts used were isolated from feces (stools) of calves that had been experimentally infected (by INRA [French National Institute for Agricultural Research] of Tours).
The tests are carried out on cells of the CMT-93 murine line (mycoplasma-free) cultured in complete medium comprising 10% of FCS (Fetal Calf Serum).
Interferon-γ at 10 ng/ml is used as a positive control. This is because partial inhibition of C. parvum multiplication in enterocytes under the action of this cytokine has been described.
The cells of the CMT-93 line are seeded in a proportion of 3.6×10^5 cells per well.
The test compounds are added after 8 h.
After 24 h, the cells are lysed with trypsin and labeled with a fluorescent lectin (VVL-FITC), in order to be able to find the infected cells with a fluorescence microscope. The number of infected cells is found manually.

[3] = tested on: CMT-93 cells; experiment: Chemokine production by epithelial cells (quantitative RT-PCR); type: cell-based, murine; conditions: 24 h incubation
Procedure: The tests are carried out on cells of the CMT-93 murine line (mycoplasma-free) cultured in complete medium comprising 10% of FCS (Fetal Calf Serum) or on dendritic cells derived from bone marrow (immature) in the presence of GM-CSF (Granulocyte Macrophage Colony Stimulating Factor) added regularly to the culture for 9 days. Chemokine production by the epithelium or other intestinal cells is important for the recruitment of the inflammatory cells required for protection against cryptosporidiosis in newborns. Chemokine production by epithelial cells is measured by quantitative RT-PCR (quantification by incorporation of Sybr green) after incubation of CMT-93 cells with the various compounds for 24 h.

[4] = tested on: C. parvum; experiment: Direct test: compound added to C. parvum-infected HCT-8 cells; type: cell-based, Cryptosporidium parvum; conditions: direct addition, 500 μg/ml; for viability at 500 µg/mL: Cryptosporidium parvum, T+ = 100, read-out: % of viable sporozoites; for Number of sporozoites: single tests; for Number of sporozoites, Mean: triplicate mean
Procedure: (§2) Two cell models were tested: HCT-8 cells (human ileocecal adenocarcinoma cells) and Caco-2 cells (human colonic adenocarcinoma cells).
(§3) The Iowa Cryptosporidium parvum strain (Waterborne inc., New Orleans, La., USA) is used for the tests.
(§4) The infection is carried out on cells at 70%-80% confluence, cultured in a monolayer on collagen-coated coverslips in 24-well plates.
(§5) The supernatant of the cells in a monolayer is replaced with 3 ml of culture medium to which 1×10^4 C. parvum oocysts are added. After incubation for 3 hours in a humid incubator at 37° C. and 5% CO2, the supernatant is replaced with 3 ml of culture medium and incubated for 48 h in a humid incubator at 37° C., 5% CO2 and 80% humidity.
(§6) The culture medium of the infected cells is replaced with 1 ml of culture medium to which the test compound is then added, at a final concentration of 500 μg/ml.
(§7) The plates are incubated for 48 h in a humid incubator at 37° C. and 5% CO2.
(§8) The intracellular oocysts are stained after fixing the cells with methanol. The labeling is carried out using a specific conjugated polyclonal antibody (Sporo-Glo 20×Waterborne inc., New Orleans, La., USA). The coverslips are then mounted on slides. The intracellular oocysts are counted with a fluorescence microscope.
(§9) On each slide, 6×50 fields randomly chosen over the entire surface area of the slide are counted.
(§10) The results obtained are a triplicate mean. The data are analyzed by ANOVA. A p-value of less than or equal to 0.05 is considered to be significant.
(§11) The various compounds are tested at a dose of 500 μg/ml.

[5] = tested on: C. parvum; experiment: Direct test: compound added to C. parvum-infected Caco-2 cells; type: cell-based, Cryptosporidium parvum; conditions: direct addition, 500 μg/ml; for viability at 500 µg/mL: Cryptosporidium parvum, T+ = 100, read-out: % of viable sporozoites; for Number of sporozoites: single tests; for Number of sporozoites, Mean: triplicate mean
Procedure: as §2, §3, §4, §5, §6, §7, §8, §9, §10, §11

[6] = tested on: C. parvum; experiment: Preincubation test: C. parvum oocysts preincubated 24 h with compound, then infection of Caco-2 cells; type: cell-based, Cryptosporidium parvum; conditions: preincubation 24 h, 500 μg/ml; for viability at 500 µg/mL: Cryptosporidium parvum, T+ = 100, read-out: % of viable sporozoites; for Number of sporozoites, Mean: triplicate mean
Procedure: as §1

Compound | viability at 500 µg/mL [1] [%] | reduction of parasite development [1] [%] | Number of sporozoites, Mean [1] | reduction of parasite multiplication compared with the nontreated control [2] [%] | viability at 500 µg/mL ([4]; 48 h) [%] | effectiveness compared with paromomycin [4] | reduction in parasite development [4] [%] | Number of sporozoites ([4]; 48 h) | Number of sporozoites, Mean ([4]; 48 h) | viability at 500 µg/mL ([5]; 48 h) [%] | reduction in parasite development [5] [%] | Number of sporozoites, Mean ([5]; 48 h) | viability at 500 µg/mL [6] [%] | reduction of parasite development [6] [%] | Number of sporozoites, Mean [6] | other results
CC(=O)N[C@H]1C(O)O[C@H](CO)[C@@H](O)[C@@H]1O (stereo partly drawn) [NAG, N-acetylglucosamine] | 0.99 | 99.0 | 11 | 43 | 11.6 | more effective than paromomycin | 88.4 | 172 and 131 and 99 | 134 | 64.8 | 35.2 | 571 | 2.61 | 97.4 | 30 | Number of sporozoites [1]: 12 and 14 and 7; production of chemokines CXCL10 and CCL20, ranking of the products [3]: most effective; Number of sporozoites ([5]; 48 h): 656 and 485 and 337; Number of sporozoites ([6]; single tests): 21 and 39 and 31
NC[C@@H]1O[C@H](O[C@H]2[C@@H](O)[C@H](O[C@@H]3[C@@H](O)[C@H](N)C[C@H](N)[C@H]3O[C@H]3O[C@H](CO)[C@@H](O)[C@H](O)[C@H]3N)O[C@@H]2CO)[C@H](N)[C@@H](O)[C@@H]1O [Paromomycin, paromomycin sulfate, reference compound] | 0.53 | 99.5 | 6 |  | 55.4 |  | 44.6 | 208 and 178 and 187 | 191 | 66.4 | 33.6 | 592 | 2.87 | 97.1 | 33 | 
chitosan hydrochloride |  | 95.7 | 47 | 31 |  | more effective than paromomycin | 93.6 |  | 73 |  | 68 | 282 |  | 97.6 | 28 | % of viable sporozoites ([1]; T+ = 100): 4.3%; Number of sporozoites ([1]; hydrochloride): 47 and 52 and 37; % of viable sporozoites ([4]; 48 h, T+ = 100): 6.4%; Number of sporozoites ([4]; 48 h, hydrochloride): 90 and 66 and 64; effectiveness compared with paromomycin [5]: more effective; % of viable sporozoites ([5]; 48 h, T+ = 100): 32.0%; Number of sporozoites ([5]; 48 h, hydrochloride): 372 and 199 and 276; % of viable sporozoites ([6]; T+ = 100): 2.44%
poly-(N-deacetyl-D-glucosamine) [insoluble chitosan] |  |  |  |  |  |  |  |  |  |  |  |  |  |  |  | infected cells ([2]; nontreated control 50% of infected cells): approximately 40%
